Experimental data reported in patent US10507247B2, “Optical probes for matrix metalloproteinases” (The University Court of the University of Edinburgh, priority 2015, dated 2019).
Where two headings read alike, the source gives them in different places. Blank lines part the entries; values can stand above or below the molecule they belong to. Primed or numbered codes have the meaning given here. Where no end group is shown, it is not given here. [ ]: non-standard residue; d: D form. The star is where a group is joined. 5FAM = O=C1OC2(c3ccc(O)cc3Oc3cc(O)ccc32)c2ccc(C(=O)*)cc21; PEG2′ = PEG spacer unit (glycol linker); K(MR) = not defined here; Nle = CCCC[C@H](N)C(=O)O; βAla = NCCC(=O)O

Columns and labels:
MMP [1] = assay: Probe specificity by target inhibition (FIG. 9); format: biochemical, human; details: probe 1 μM, 30 min, inhibitor 200 nM
Experimental: Probe specificity by target inhibition for probes A and probe B. Data represents the fluorescence signal provided by the probe (1 μM) after 30 min using a multiwell plate fluorimeter at excitation/emission 485/528 nm. To validate the specificity and ability of molecular probe to detect the target enzyme, probe fluorescence (initiated by cleavage) was measured in the presence of enzyme with/without inhibitor.
The enzyme assays were run in a 384-well format on a PCR opaque microplate (Thermo Scientific). All dilutions and reactions were prepared in MMP buffer (50 mM Tris, 10 mM CaCl2, 0.15M NaCl, 0.05% Brij-35, pH 7). Proteolytic activity was determined by calculating the fold change in fluorescence over background signal provided by the corresponding dilution of the probe and/or inhibitors with exogenous enzymes using a-multiwell plate fluorimeter (Synergy H1 Hybrid Reader, BioTek instruments Ltd) at excitation/emission 485/528 nm. Recombinant human MMPs (Catalytic domain MMP-1, -2, -3, -7, -8, -9, -10, -11, -12, -13 (Enzo Life Sciences) and Full-length MMP-2, -9, -12 and -13 (Merck/Millipore)) were used at 30 nM. Pro-MMP-13 (R & D Systems) was activated by incubating with 1 mM 4-aminophenylmercunc acetate (APMA) for 2 hrs at 37° C. […] For inhibition assays, enzyme and inhibitor were pre-incubated for 1 hr at 37° C. before the addition of molecular probe.

human MMP-9 = human MMP-9 (Homo sapiens, UniProt P14780); assay: Enzyme kinetics of the molecular probe, MMP-9; format: biochemical
Experimental: (§1) Enzyme kinetics of the molecular probe specificity to human MMP-2, MMP-9, MMP-13 and plasmin. The kinetic constants KM and Vmax were calculated for probe A and B (Table 8 below).
(§2) The enzyme assays were run in a 384-well format on a PCR opaque microplate (Thermo Scientific). All dilutions and reactions were prepared in MMP buffer (50 mM Tris, 10 mM CaCl2, 0.15M NaCl, 0.05% Brij-35, pH 7). Proteolytic activity was determined by calculating the fold change in fluorescence over background signal provided by the corresponding dilution of the probe and/or inhibitors with exogenous enzymes using a-multiwell plate fluorimeter (Synergy H1 Hybrid Reader, BioTek instruments Ltd) at excitation/emission 485/528 nm. Recombinant human MMPs (Catalytic domain MMP-1, -2, -3, -7, -8, -9, -10, -11, -12, -13 (Enzo Life Sciences) and Full-length MMP-2, -9, -12 and -13 (Merck/Millipore)) were used at 30 nM. Pro-MMP-13 (R & D Systems) was activated by incubating with 1 mM 4-aminophenylmercunc acetate (APMA) for 2 hrs at 37° C. Human neutrophil elastase (Elastase Product Company, used at 2.5 ug/ml), neutrophil lysate (lysed human neutrophils), and recombinant human Thrombin (Sigma-Aldrich, used at 5 U/ml), Plasmin (Sigma-Aldrich, used at 30 nM) and Factor Xa (Sigma-Aldrich, used at 0.5 μM) were used to identify the lead molecular probe sequences. […]

plasmin [2] = target: T1, plasmin (Homo sapiens, UniProt P00747); assay: Susceptibility / stability of probes to plasmin; format: biochemical
T1 construct: purchased Sigma-Aldrich
Experimental: (§3) FIG. 8. Enzyme specificity of the FRET branched probes A, B and C. Data represents the average fold change in fluorescence over background signal provided by probe (10 μM) with exogenous enzymes using a multiwell plate fluorimeter (Synergy H1 Hybrid Reader, BioTek instruments Ltd) at excitation/emission 485/528 nm. Recombinant human catalytic domain MMPs-1, -2, -3, -7, -8, -9, -10, -11, -12, -13 were used at 30 nM. Recombinant human Thrombin, Plasmin and Factor Xa were used at 5 U/ml, 30 nM, 0.5 μM, respectively.
Also, to reduce degradation without altering the amino acid constituents we have synthesised variants including PEG units at the amino and/or carboxy termini in order to block degradation from the ends of the peptide sequence.
(§4) Three selected probes (A: AMF-106, B: SVC-186 B, and C: SVC-196) were evaluated in vitro in a new experiment including other members of the MMP family (MMPs-1, -2, -3, -7, -8, -9, -10, -11, -12, -13) as well as Thrombin, Plasmin and Factor Xa, and the results are shown in FIG. 8. […] The plasmin cleavage site was identified and attempts to make a resistant version replacing with D-aa in these positions were unsuccessful.
as §2, with “C.” for “C. Human neutrophil elastase (Elastase Product Company, used at 2.5 ug/ml), neutrophil lysate (lysed human neutrophils), and recombinant human Thrombin (Sigma-Aldrich, used at 5 U/ml), Plasmin (Sigma-Aldrich, used at 30 nM) and Factor Xa (Sigma-Aldrich, used at 0.5 μM) were used to identify the lead molecular probe sequences.”

[3] = test system: MMPs-1, -2, -3, -7, -8, -9, -10, -11, -12, -13, Thrombin, Plasmin and Factor Xa; assay: Enzyme specificity of the FRET branched probes with exogenous enzymes (FIG. 8); format: biochemical, human; details: probe 10 μM; MMPs 30 nM; Thrombin 5 U/ml, Plasmin 30 nM, Factor Xa 0.5 μM
Experimental: as §3, §4
(§5) The enzyme assays were run in a 384-well format on a PCR opaque microplate (Thermo Scientific). All dilutions and reactions were prepared in MMP buffer (50 mM Tris, 10 mM CaCl2, 0.15M NaCl, 0.05% Brij-35, pH 7). Proteolytic activity was determined by calculating the fold change in fluorescence over background signal provided by the corresponding dilution of the probe and/or inhibitors with exogenous enzymes using a-multiwell plate fluorimeter (Synergy H1 Hybrid Reader, BioTek instruments Ltd) at excitation/emission 485/528 nm. Recombinant human MMPs (Catalytic domain MMP-1, -2, -3, -7, -8, -9, -10, -11, -12, -13 (Enzo Life Sciences) and Full-length MMP-2, -9, -12 and -13 (Merck/Millipore)) were used at 30 nM. Pro-MMP-13 (R & D Systems) was activated by incubating with 1 mM 4-aminophenylmercunc acetate (APMA) for 2 hrs at 37° C. Human neutrophil elastase (Elastase Product Company, used at 2.5 ug/ml), neutrophil lysate (lysed human neutrophils), and recombinant human Thrombin (Sigma-Aldrich, used at 5 U/ml), Plasmin (Sigma-Aldrich, used at 30 nM) and Factor Xa (Sigma-Aldrich, used at 0.5 μM) were used to identify the lead molecular probe sequences. For inhibition assays, enzyme and inhibitor were pre-incubated for 1 hr at 37° C. before the addition of molecular probe.

MMP-13 [4] = assay: Enzyme assay, fold change in probe fluorescence over background with MMP-13; format: biochemical, human; details: different probe scaffolds (monomer, dendrimers); MMP-13 52 kDa
Experimental: (§6) Enzyme specificity of the lead probes with exogenous enzymes was tested using a multiwell plate fluorimeter at excitation/emission 485/528 nm (Table 3). Recombinant human catalytic domain MMPs-1, -2, -3, -7, -8, -9, -10, -11, -12, -13 were used at 30 nM. Cleavage site for each sequence is indicated in italics.
(§7) The different compounds were also evaluated according to the fold change in fluorescent signal in presence of MMP-9 and MMP-13, and the results are shown in Table 7. From this comparison, the FRET dendrimers comprising SEQ ID NO.1 and SEQ ID NO.7 (AMF-106 and SVC-186) together with the 9Dendrimer comprising SEQ ID NO.7 (SVC-196) were chosen for further evaluation. These dendrimers are shown in FIG. 7, probe A (AMF-106), probe B (SVC-186) and probe C (SVC-196).
as §5

human MMP-2 = target: T2, human MMP-2 (Homo sapiens, UniProt P08253); assay: Enzyme kinetics of the molecular probe, MMP-2; format: biochemical
T2 sequence (P08253 110-660): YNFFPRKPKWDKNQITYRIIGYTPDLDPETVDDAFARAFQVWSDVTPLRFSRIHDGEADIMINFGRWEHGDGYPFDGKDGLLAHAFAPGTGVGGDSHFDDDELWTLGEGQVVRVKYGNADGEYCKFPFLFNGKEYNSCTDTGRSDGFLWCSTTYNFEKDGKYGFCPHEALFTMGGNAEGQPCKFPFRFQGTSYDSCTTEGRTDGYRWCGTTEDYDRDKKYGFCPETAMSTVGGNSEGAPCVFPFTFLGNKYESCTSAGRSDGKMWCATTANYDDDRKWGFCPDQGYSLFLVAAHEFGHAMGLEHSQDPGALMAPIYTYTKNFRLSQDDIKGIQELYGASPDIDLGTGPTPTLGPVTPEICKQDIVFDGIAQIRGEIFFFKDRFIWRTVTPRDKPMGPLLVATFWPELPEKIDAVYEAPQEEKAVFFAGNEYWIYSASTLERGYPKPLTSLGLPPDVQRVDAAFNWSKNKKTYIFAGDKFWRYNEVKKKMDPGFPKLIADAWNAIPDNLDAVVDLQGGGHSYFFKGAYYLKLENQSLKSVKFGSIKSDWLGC
Experimental: as §1, §2

MMP-9 = assay: Enzyme assay, fold change in probe fluorescence over background with MMP-9; format: biochemical, human; details: different probe scaffolds (monomer, dendrimers); MMP-9 83 kDa
Experimental: A library of probes (listed in Table 2 below) containing FAM (Carboxyfluorescein) as the fluorophore (donor) and MethylRed (MR) as the quencher (acceptor) and a variety of peptide sequences was synthesized by manual standard solid-phase Fmoc peptide chemistry (described below).
as §6, §7, §5

MMP-13 [5] = target: MMP-13 (Homo sapiens, UniProt P45452); assay: Enzyme kinetics of the molecular probe, MMP-13; format: biochemical
Experimental: as §1, §2

plasmin [6] = target: T1, plasmin; assay: Enzyme kinetics of the molecular probe, plasmin; format: biochemical
Experimental: as §1, §2

MMP-2/9/13 in the lung = assay: Ex vivo and in vivo ovine lung and human lung tissue imaging by fCFM; details: lung environment
Experimental: All compounds have undergone biological assessment. For stability we have assessed each compound in the presence of 0.9% NaCl (Saline) or pooled lavage fluid from patients with acute lung injury and analysed by matrix-assisted laser desorption/ionization (MALDI) or fourier transform mass spectrometry (FTMS). In vitro activation was assessed on benchtop confocal in the presence of compound with lung tissue samples. For the ex vivo and in vivo ovine lung (FIG. 11) and human lung tissue experiments (FIG. 12) each compound was assessed in a control lung segment (instilled with 2 ml PBS) or a fibrotic/cancer segment, the compound was administered to the segment of interest and this was imaged by probe based fCFM.

MMP [7] = assay: Activation of probe variants by MMP in vitro; format: biochemical; details: additional quencher per probe element
Experimental: The selectivity of the probes, together with further probes AMF-14b, SVC-030 (both defined in Table 6 below) and SVC-068 (defined in Table 4 below), to detect MMP over elastase, another proteinase relevant in lung disease, was tested and the results for all probes are shown in FIG. 2.
Variants consisting of D-amino acids at the recognition site sequence with or without blocking PEG units were also synthesised and assessed.
as §5

T1 sequence (P00747 581-810 limits assumed): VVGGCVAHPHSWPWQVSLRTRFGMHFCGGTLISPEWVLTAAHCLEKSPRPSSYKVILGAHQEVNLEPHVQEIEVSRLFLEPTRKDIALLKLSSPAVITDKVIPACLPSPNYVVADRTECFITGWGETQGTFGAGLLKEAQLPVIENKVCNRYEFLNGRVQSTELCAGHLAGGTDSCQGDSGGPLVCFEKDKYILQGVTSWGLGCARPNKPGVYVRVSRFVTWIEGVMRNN
T1 sequence (P00747 97-580 partner limits assumed): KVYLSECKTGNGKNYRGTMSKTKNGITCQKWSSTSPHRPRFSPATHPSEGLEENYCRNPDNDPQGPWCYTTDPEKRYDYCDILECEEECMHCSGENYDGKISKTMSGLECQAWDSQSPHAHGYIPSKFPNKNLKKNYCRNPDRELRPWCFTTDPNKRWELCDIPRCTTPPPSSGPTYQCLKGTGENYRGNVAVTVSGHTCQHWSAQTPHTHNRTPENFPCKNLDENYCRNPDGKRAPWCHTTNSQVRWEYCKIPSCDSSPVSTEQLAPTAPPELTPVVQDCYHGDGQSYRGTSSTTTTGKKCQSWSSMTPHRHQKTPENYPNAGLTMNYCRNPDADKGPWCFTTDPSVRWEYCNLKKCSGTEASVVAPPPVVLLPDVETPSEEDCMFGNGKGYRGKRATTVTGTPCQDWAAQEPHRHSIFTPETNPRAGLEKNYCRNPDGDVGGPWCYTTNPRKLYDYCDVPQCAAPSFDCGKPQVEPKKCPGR
human MMP-9, sequence (P14780 94-707): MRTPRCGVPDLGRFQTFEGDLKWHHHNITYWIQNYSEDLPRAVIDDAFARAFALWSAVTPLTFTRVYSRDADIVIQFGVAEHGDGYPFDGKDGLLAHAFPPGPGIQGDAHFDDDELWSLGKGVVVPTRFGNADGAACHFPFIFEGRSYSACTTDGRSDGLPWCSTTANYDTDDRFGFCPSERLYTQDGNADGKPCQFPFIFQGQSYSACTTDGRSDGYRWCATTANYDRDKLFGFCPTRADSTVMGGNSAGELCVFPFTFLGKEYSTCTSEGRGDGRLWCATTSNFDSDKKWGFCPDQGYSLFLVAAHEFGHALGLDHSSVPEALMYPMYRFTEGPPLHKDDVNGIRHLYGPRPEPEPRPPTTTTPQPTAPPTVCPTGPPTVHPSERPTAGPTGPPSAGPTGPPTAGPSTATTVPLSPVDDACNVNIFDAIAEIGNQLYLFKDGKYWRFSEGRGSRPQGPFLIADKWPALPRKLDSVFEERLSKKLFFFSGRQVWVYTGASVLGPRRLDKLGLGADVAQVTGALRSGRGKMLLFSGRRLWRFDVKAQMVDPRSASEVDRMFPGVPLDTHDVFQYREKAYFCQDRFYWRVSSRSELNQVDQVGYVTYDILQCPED

fluorescent intensity of probes A and B after incubation of the enzyme with inhibitor (MMP [1]): significantly reduced
Molecule: CNC(=O)[C@@H](NC(=O)[C@H](CC(C)C)[C@H](O)C(=O)NO)C(C)(C)C [Marimastat]

Km (human MMP-9): 0.53 µM
stability / susceptibility to plasmin (plasmin [2]): susceptible to plasmin
selectivity for MMP-2/9 [3]: better selectivity for MMP-2/9
MMP-13 (52 kDa), fold change in fluorescent signal (MMP-13 [4]): 34.52
Km (human MMP-2): 0.06 µM
MMP-9 (83 kDa), fold change in fluorescent signal (MMP-9): 11.20
Km (MMP-13 [5]): 0.22 µM
Km (plasmin [6]): 0.36 µM
Molecule: FAM-PEG2-G-P-K-G-L-K-G-K(MR)-PEG2-k-PEG2-k-3 probe elements ({5FAM-PEG2′}-GPKGLKG; not fully specified (C-terminus); also: three probe elements on a scaffold) [AMF-106]

stability / susceptibility to plasmin (plasmin [2]; listed as Probe B): plasmin resistant
stability / susceptibility to plasmin (plasmin [2]; listed as SVC-01-186): stable
selectivity for MMP-2/9 [3]: better selectivity for MMP-2/9
MMP-13 (52 kDa), fold change in fluorescent signal (MMP-13 [4]): 26.65
MMP-9 (83 kDa), fold change in fluorescent signal (MMP-9): 6.49
Molecule: FAM-PEG2-PFGNleKβA-K(MR)-PEG2-k-PEG2-k-3 probe elements ({5FAM-PEG2′}-PFG[Nle]K[βAla]-{K(MR)-PEG2′-code k-PEG2′-code k}; reading uncertain; also: three probe elements on a scaffold) [SVC-186]
activation in the presence of MMP-2/9/13 in the lung (MMP-2/9/13 in the lung): able to activate

MMP-13 (52 kDa), fold change in fluorescent signal (MMP-13 [4]): 9.00
MMP-9 (83 kDa), fold change in fluorescent signal (MMP-9): 4.84
Molecule: FAM-PEG2-PFGNleKβA-K[K(MR)2]-PEG2-k-PEG2-k-3 probe elements [SVC-195]
signal-to-noise ratio (MMP [7]): did not further improved
